Laboratory results as given in US10143638B2, “Method of treating skin with ingenol mebutate” (LEO Laboratories Limited, priority 2009, dated 2018).

Columns and labels:
Format in all cases: cell-based, human
dermal fibroblasts = assay: Hyaluronan synthesis by dermal fibroblasts (Hyaluronic Acid Quantitative Test Kit)
Text: (§1) A normal adult skin biopsy (6 mm) was obtained (n=1), with informed consent, from an individual attending the Oral Surgery Clinic, School of Dentistry, Wales College of Medicine, Cardiff. Following the application of a local anaesthetic, the dermal biopsy was collected and adult dermal fibroblast cultures established by single cell suspension technique, following enzymic degradation of the specimen. This technique has previously been reliably used to establish viable primary cultures of both oral and dermal fibroblasts in vitro (Cook et al, 2000; Stephens et al, 2001; 2003). Dermal fibroblasts were cultured in Fibroblast-Serum Containing Medium, containing Dulbecco's Modified Eagle's Medium (DMEM), supplemented with L-glutamine (2 mM), antibiotics (100 U/ml) penicillin G sodium, […] streptomycin sulphate and 0.25 μg/ml amphotericin B) and 10% foetal calf serum (all purchased from Invitrogen Ltd., Paisley, U.K.). Dermal fibroblast cultures were maintained at 37° C., in a 5% CO2/95% air atmosphere, with the culture medium being changed every 2-3 days. Dermal fibroblasts were used between) passage 7-17, for all experiments.
Following trypsinization, dermal fibroblasts were seeded in 24-well tissue culture plates in PEP005-free, Fibroblast-Serum Containing Medium (1 ml), at a cell density of 2.5×10^4 cell/well. Dermal fibroblasts were maintained at 37° C., in a 5% CO2/95% air atmosphere, for 48 h, prior to maintenance in serum-free, Fibroblast-Serum Containing Medium (1 ml), for a further 48 h. At this stage, the serum-free, culture medium was replaced with Fibroblast-Serum Containing Medium (600 μl), containing 0 μg/ml, 0.01 μg/ml, 0.1 μg/ml, 1 μg/ml, 10 μg/ml or 100 μg/ml PEP005, +/−TGF-β1 (10 ng/ml) (three culture wells per PEP005 concentration). A control was also established, consisting of cells in serum-free, Fibroblast-Serum Containing Medium, containing 1% DMSO. The dermal fibroblasts were maintained at 37° C., in a 5% CO2/95% air atmosphere, for 24 h or 72 h, prior to culture medium removal. Hyaluronan synthesis in the collected culture media was quantified, using a Hyaluronic Acid Quantitative Test Kit (Corgenix U.K. Ltd., Cambridgeshire, U.K.), which utilizes a naturally occurring bovine binding protein to hyaluronan. Supernatants were assayed, as per manufacturer's instructions, and optical density measured using a spectrophotometer at 450 nm. Hyaluronan concentrations were determined by comparing the absorbance of the sample against a reference curve prepared from the reagent blank and standards. Each experiment was performed on three separate occasions.

HAS2 = HAS2 gene expression by dermal fibroblasts (qPCR); conditions: non-significant (p>0.05)
Text: as §1
(§2) Following trypsinization, dermal fibroblasts were seeded in 24-well tissue culture plates, in PEP005-free, Fibroblast-Serum Containing Medium (1 ml), at a cell density of 2.5×10^4 cell/well. Dermal fibroblasts were maintained at 37° C., in a 5% CO2/95% air atmosphere, overnight. At this stage, the culture medium was replaced with Fibroblast-Serum Containing Medium (600 μl), containing 0 μg/ml, 0.01 μg/ml, 0.1 μg/ml, 1 μg/ml, 10 μg/ml or 100 μg/ml PEP005, +/−TGF-β1 (10 ng/ml) (three culture wells per PEP005 concentration). A control was also established, consisting of cells in Fibroblast-Serum Containing Medium, containing 1% DMSO. The dermal fibroblasts were maintained at 37° C., in a 5% CO2/95% air atmosphere, for 24 h or 72 h, prior to washing in PBS (3×1 ml) and Trizol® Reagent (250 μl) added to the cells, for 5 min at room temperature, to induce cell lysis. RNA was extracted by the phenol-chloroform method, as described above, while a cDNA library was generated via random hexamer RT, as described above. RNA (1 μg) was added to 100 µM random hexamer (1 μl), 5×RT Buffer (4 μl), 2.5 mM Deoxynucleoside Triphosphates (dNTPs, 5 μl), 2 μl DTT and Nuclease-Free Water, were added to the reaction (total volume, 20 μl). To denature the RNA, reaction tubes were placed in a GeneAmp PCR System 9700 (Applied Biosystems, Cheshire, U.K.) and heated for 5 min/95° C., prior to cooling to 4° C. Superscript (1 μl) and RNAsin® Ribonuclease Inhibitor (1 μl, Promega, Hampshire, U.K.) were added to each tube, and the tubes subjected to […] at 20° C. for 10 min, 42° C. for 1 h and 95° C. for 5 min, prior to storage at 4° C., until required. As a negative control, RT was also performed, with Nuclease-Free Water replacing the RNA sample.
(§3) qPCR was performed, as described above, with the probe and primers for HAS1, HAS2 and HAS3 (target genes) and the 18s ribosomal RNA (reference gene), designed and supplied by Applied Biosystems. PCR was performed in a final volume of 20 μl/sample, with each reaction mix consisting of cDNA (1 μl), target gene primers and probe (1 μl), Taqman® FAST Universal PCR Master Mix (10 μl, Applied Biosystems), and Nuclease-Free Water (8 μl). PCR amplification was performed, using an initial cycle of 95° C. for 1 s, followed by 40 cycles of 60° C. for 20 s. A cDNA-free control was also included. Again, the comparative CT method was used for relative quantification of gene expression. Each experiment was performed on three separate occasions.

HAS3 = HAS3 gene expression by dermal fibroblasts (qPCR)
Text: as §1, §2, §3

Compound: C/C=C(/C)C(=O)O[C@H]1C(C)=C[C@]23C(=O)[C@@H](C=C(CO)[C@@H](O)[C@]12O)[C@H]1[C@@H](C[C@H]3C)C1(C)C [PEP005, ingenol-3-angelate]
- hyaluronan synthesis (dermal fibroblasts; PEP005 0.01-10 μg/ml, absence of TGF-β1, 24 h, compared to untreated controls): significant, stimulatory effect
- hyaluronan synthesis (dermal fibroblasts; PEP005 0.01-100 μg/ml, absence of TGF-β1, 72 h, compared to untreated controls): significant, stimulatory effect
- hyaluronan synthesis (dermal fibroblasts; PEP005 plus TGF-β1 (10 ng/ml), 24 h, compared to untreated controls and to PEP005 without TGF-β1): significant, synergistic effect
- HAS2 gene expression (HAS2; PEP005 0.01-100 μg/ml plus TGF-β1 (10 ng/ml), 72 h): general down-regulation
- HAS2 expression (HAS2; PEP005 0.1-10 μg/ml plus TGF-β1 (10 ng/ml), 24 h): up-regulation
- HAS2 expression (HAS2; PEP005 0.1-10 μg/ml, absence of TGF-β1, 24 h): stimulatory effect
- HAS2 gene expression (HAS2; PEP005 0.1-10 μg/ml, absence of TGF-β1, 72 h): major up-regulation
- HAS3 expression (HAS3; PEP005 0.01-100 μg/ml plus TGF-β1 (10 ng/ml), 72 h (p>0.05)): no significant effects
- HAS3 expression (HAS3; PEP005 0.01-100 μg/ml, absence of TGF-β1, 24 h, non-significant (p>0.05)): completely abolished
- HAS3 expression (HAS3; PEP005 0.1-10 μg/ml plus TGF-β1 (10 ng/ml), 24 h, down-regulation, non-significant (p>0.05)): barely detectable levels
- HAS3 gene expression (HAS3; PEP005 1-10 μg/ml, absence of TGF-β1, 72 h, non-significant (p>0.05)): up-regulation
